Laboratory results taken from patent US12077503B2, “Substituted cyclic amides and their use as herbicides” (FMC CORPORATION, priority 2015, dated 2024).

How the values were obtained:
Type in all cases: in vivo
[1] = system: giant foxtail (Setaria faberi); assay: Test G Pre-Emergence Protocol; details: Setaria faberi, pre-emergence, 312 h, evaluated after 13 days; for pest or weed control at 15.625 g/ha: 15.625 g ai/ha; for pest or weed control at 15.625 g/ha / pest or weed control at 250 g/ha: read-out: Foxtail, Giant damage rating (100=total damage to plant; 0=no damage to plant); for pest or weed control at 62.5 g/ha: 62.5 g ai/ha, 100=total damage to plant, 0=no damage to plant, read-out: Foxtail, Giant damage rating; for pest or weed control at 250 g/ha: 250 g ai/ha
In short: (§1)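 One day after sowing, pots are treated with a spray of test compound formulated in acetone/water 50:50 plus 0.5% Tween 20, giving 15.625, 62.5 or 250 g/ha. Evaluation on a 0–100 damage scale follows 13 days of glasshouse growth.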

[2] = system: redroot pigweed (Amaranthus retroflexus); assay: Test G Pre-Emergence Protocol; details: Amaranthus retroflexus, pre-emergence, 312 h, evaluated after 13 days; for pest or weed control at 15.625 g/ha: 15.625 g ai/ha; for pest or weed control at 15.625 g/ha / pest or weed control at 250 g/ha: read-out: Pigweed, Redroot damage rating (100=total damage to plant; 0=no damage to plant); for pest or weed control at 62.5 g/ha: 62.5 g ai/ha, 100=total damage to plant, 0=no damage to plant, read-out: Pigweed, Redroot damage rating; for pest or weed control at 250 g/ha: 250 g ai/ha
In short: as §1

[3] = system: velvetleaf (Abutilon theophrasti); assay: Test G Pre-Emergence Protocol; details: Abutilon theophrasti, pre-emergence, 312 h, evaluated after 13 days; for pest or weed control at 15.625 g/ha: 15.625 g ai/ha; for pest or weed control at 15.625 g/ha / pest or weed control at 250 g/ha: read-out: Velvetleaf damage rating (100=total damage to plant; 0=no damage to plant); for pest or weed control at 62.5 g/ha: 62.5 g ai/ha, 100=total damage to plant, 0=no damage to plant, read-out: Velvetleaf damage rating; for pest or weed control at 250 g/ha: 250 g ai/ha
In short: as §1

[4] = system: barnyardgrass (Echinochloa crus-galli); assay: Test G Pre-Emergence Protocol; details: Echinochloa crus-galli, pre-emergence, 312 h, evaluated after 13 days; for pest or weed control at 15.625 g/ha: 15.625 g ai/ha; for pest or weed control at 15.625 g/ha / pest or weed control at 250 g/ha: read-out: Barnyardgrass damage rating (100=total damage to plant; 0=no damage to plant); for pest or weed control at 62.5 g/ha: 62.5 g ai/ha, 100=total damage to plant, 0=no damage to plant, read-out: Barnyardgrass damage rating; for pest or weed control at 250 g/ha: 250 g ai/ha
In short: as §1

[5] = system: corn (Zea mays); assay: Test G Pre-Emergence Protocol; details: Zea mays, pre-emergence, 312 h, evaluated after 13 days; for plant injury at 15.625 g/ha: 15.625 g ai/ha; for plant injury at 15.625 g/ha / plant injury at 250 g/ha: read-out: Corn damage rating (100=total damage to plant; 0=no damage to plant); for plant injury at 62.5 g/ha: 62.5 g ai/ha, 100=total damage to plant, 0=no damage to plant, read-out: Corn damage rating; for plant injury at 250 g/ha: 250 g ai/ha
In short: as §1

[6] = system: ivy-leaved morning glory (Ipomoea hederacea); assay: Test G Pre-Emergence Protocol; details: Ipomoea, pre-emergence, 312 h, evaluated after 13 days; for pest or weed control at 15.625 g/ha: 15.625 g ai/ha; for pest or weed control at 15.625 g/ha / pest or weed control at 250 g/ha: read-out: Morningglory, Ivy-leaved damage rating (100=total damage to plant; 0=no damage to plant); for pest or weed control at 62.5 g/ha: 62.5 g ai/ha, 100=total damage to plant, 0=no damage to plant, read-out: Morningglory, Ivy-leaved damage rating; for pest or weed control at 250 g/ha: 250 g ai/ha
In short: as §1

[7] = system: giant foxtail (Setaria faberi); assay: Test G Post-Emergence Protocol; details: Setaria faberi, post-emergence, 312 h, read-out: Foxtail, Giant damage rating; for pest or weed control at 15.625 g/ha: 15.625 g ai/ha, evaluated after 13 days (100=total damage to plant; 0=no damage to plant); for pest or weed control at 62.5 g/ha: 62.5 g ai/ha; for pest or weed control at 62.5 g/ha / pest or weed control at 250 g/ha: evaluated after 13 days, 100=total damage to plant, 0=no damage to plant; for pest or weed control at 250 g/ha: 250 g ai/ha
In short: (§2)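 Seedlings grown 8 days in soil in a glasshouse (24/16 °C day/night, 14 h light, 65% humidity) were sprayed post-emergence with compound in acetone/water 50:50 plus 0.5% Tween 20 at 15.625, 62.5 or 250 g/ha. Damage was scored after 13 days on a 0–100 scale (100 = total damage).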

[8] = system: redroot pigweed (Amaranthus retroflexus); assay: Test G Post-Emergence Protocol; details: Amaranthus retroflexus, post-emergence, 312 h, read-out: Pigweed, Redroot damage rating; for pest or weed control at 15.625 g/ha: 15.625 g ai/ha, evaluated after 13 days (100=total damage to plant; 0=no damage to plant); for pest or weed control at 62.5 g/ha: 62.5 g ai/ha; for pest or weed control at 62.5 g/ha / pest or weed control at 250 g/ha: evaluated after 13 days, 100=total damage to plant, 0=no damage to plant; for pest or weed control at 250 g/ha: 250 g ai/ha
In short: as §2

[9] = system: velvetleaf (Abutilon theophrasti); assay: Test G Post-Emergence Protocol; details: Abutilon theophrasti, post-emergence, 312 h, read-out: Velvetleaf damage rating; for pest or weed control at 15.625 g/ha: 15.625 g ai/ha, evaluated after 13 days (100=total damage to plant; 0=no damage to plant); for pest or weed control at 62.5 g/ha: 62.5 g ai/ha; for pest or weed control at 62.5 g/ha / pest or weed control at 250 g/ha: evaluated after 13 days, 100=total damage to plant, 0=no damage to plant; for pest or weed control at 250 g/ha: 250 g ai/ha
In short: as §2

[10] = system: barnyardgrass (Echinochloa crus-galli); assay: Test G Post-Emergence Protocol; details: Echinochloa crus-galli, post-emergence, 312 h, read-out: Barnyardgrass damage rating; for pest or weed control at 15.625 g/ha: 15.625 g ai/ha, evaluated after 13 days (100=total damage to plant; 0=no damage to plant); for pest or weed control at 62.5 g/ha: 62.5 g ai/ha; for pest or weed control at 62.5 g/ha / pest or weed control at 250 g/ha: evaluated after 13 days, 100=total damage to plant, 0=no damage to plant; for pest or weed control at 250 g/ha: 250 g ai/ha
In short: as §2

[11] = system: corn (Zea mays); assay: Test G Post-Emergence Protocol; details: Zea mays, post-emergence, 312 h, read-out: Corn damage rating; for plant injury at 15.625 g/ha: 15.625 g ai/ha, evaluated after 13 days (100=total damage to plant; 0=no damage to plant); for plant injury at 62.5 g/ha: 62.5 g ai/ha; for plant injury at 62.5 g/ha / plant injury at 250 g/ha: evaluated after 13 days, 100=total damage to plant, 0=no damage to plant; for plant injury at 250 g/ha: 250 g ai/ha
In short: as §2

[12] = system: ivy-leaved morning glory (Ipomoea hederacea); assay: Test G Post-Emergence Protocol; details: Ipomoea, post-emergence, 312 h, read-out: Morningglory, Ivy-leaved damage rating; for pest or weed control at 15.625 g/ha: 15.625 g ai/ha, evaluated after 13 days (100=total damage to plant; 0=no damage to plant); for pest or weed control at 62.5 g/ha: 62.5 g ai/ha; for pest or weed control at 62.5 g/ha / pest or weed control at 250 g/ha: evaluated after 13 days, 100=total damage to plant, 0=no damage to plant; for pest or weed control at 250 g/ha: 250 g ai/ha
In short: as §2

Row | Compound | pest or weed control at 15.625 g/ha [1] | pest or weed control at 62.5 g/ha [1] | pest or weed control at 250 g/ha [1] | pest or weed control at 15.625 g/ha [2] | pest or weed control at 62.5 g/ha [2] | pest or weed control at 250 g/ha [2] | pest or weed control at 15.625 g/ha [3] | pest or weed control at 62.5 g/ha [3] | pest or weed control at 250 g/ha [3] | pest or weed control at 15.625 g/ha [4] | pest or weed control at 62.5 g/ha [4] | pest or weed control at 250 g/ha [4] | plant injury at 15.625 g/ha [5] | plant injury at 62.5 g/ha [5] | plant injury at 250 g/ha [5] | pest or weed control at 15.625 g/ha [6] | pest or weed control at 62.5 g/ha [6] | pest or weed control at 250 g/ha [6] | pest or weed control at 15.625 g/ha [7] | pest or weed control at 62.5 g/ha [7] | other results
1 | Cc1ccc(C2CN(C)C(=O)C2C(=O)Nc2cccc(F)c2F)cc1[N+](=O)[O-] (stereo not drawn) [Compound 1722] | 60% | 70% | 90% | 0% | 10% | 30% | 0% | 0% | 20% | 0% | 60% | 80% | 10% | 30% | 70% | 0% | 0% | 0% | 60% | 70% | pest or weed control at 250 g/ha [7]: 80%; pest or weed control at 15.625 g/ha [8]: 0%; pest or weed control at 62.5 g/ha [8]: 10%; pest or weed control at 250 g/ha [8]: 30%; pest or weed control at 15.625 g/ha [9]: 0%; pest or weed control at 62.5 g/ha [9]: 10%; pest or weed control at 250 g/ha [9]: 10%; pest or weed control at 15.625 g/ha [10]: 10%; pest or weed control at 62.5 g/ha [10]: 60%; pest or weed control at 250 g/ha [10]: 80%; plant injury at 15.625 g/ha [11]: 10%; plant injury at 62.5 g/ha [11]: 0%; plant injury at 250 g/ha [11]: 80%; pest or weed control at 15.625 g/ha [12]: 20%; pest or weed control at 62.5 g/ha [12]: 30%; pest or weed control at 250 g/ha [12]: 70%
2 | COc1cc(C)cc([C@@H]2CN(C)C(=O)[C@H]2C(=O)Nc2cccc(F)c2C)c1 (racemic) [Compound 1791] | 80% | 90% | 90% | 0% | 0% | 10% | 0% | 10% | 40% | 70% | 80% | 90% | 20% | 70% | 80% | 10% | 20% | 80% | 80% | 80% | pest or weed control at 250 g/ha [7]: 80%; pest or weed control at 15.625 g/ha [8]: 0%; pest or weed control at 62.5 g/ha [8]: 0%; pest or weed control at 250 g/ha [8]: 0%; pest or weed control at 15.625 g/ha [9]: 10%; pest or weed control at 62.5 g/ha [9]: 30%; pest or weed control at 250 g/ha [9]: 20%; pest or weed control at 15.625 g/ha [10]: 70%; pest or weed control at 62.5 g/ha [10]: 80%; pest or weed control at 250 g/ha [10]: 80%; plant injury at 15.625 g/ha [11]: 30%; plant injury at 62.5 g/ha [11]: 70%; plant injury at 250 g/ha [11]: 80%; pest or weed control at 15.625 g/ha [12]: 20%; pest or weed control at 62.5 g/ha [12]: 70%; pest or weed control at 250 g/ha [12]: 70%
